Reference: paper PMC5766609 (Scientific Reports, 2018)
Residues, ends and D or L forms follow the SMILES beside them.

Key:
[1] = target: T1, human GLP-1 receptor (GLP1R) (Homo sapiens, UniProt P43220); test: cAMP assay on CHO-JumpIn cells stably transfected with human GLP-1 receptor (HitHunter cAMP); format: cell-based; conditions: Table 2, cAMP accumulation, buffer PBS, 0.1% BSA, 100 μM RO 20-1724, 20% serum, 1 hr at RT, value ± spread, read-out: EC50 GLP1R;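 also: peptides tested as 4-fold serial dilution series, cells exposed 1 hr at RT in the dark, cAMP quantified against a cAMP standard calibration curve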
T1 construct: expressed in transfected cells; host or cells: CHO-JumpIn cells, stably transfected
T1 sequence (P43220 24-463): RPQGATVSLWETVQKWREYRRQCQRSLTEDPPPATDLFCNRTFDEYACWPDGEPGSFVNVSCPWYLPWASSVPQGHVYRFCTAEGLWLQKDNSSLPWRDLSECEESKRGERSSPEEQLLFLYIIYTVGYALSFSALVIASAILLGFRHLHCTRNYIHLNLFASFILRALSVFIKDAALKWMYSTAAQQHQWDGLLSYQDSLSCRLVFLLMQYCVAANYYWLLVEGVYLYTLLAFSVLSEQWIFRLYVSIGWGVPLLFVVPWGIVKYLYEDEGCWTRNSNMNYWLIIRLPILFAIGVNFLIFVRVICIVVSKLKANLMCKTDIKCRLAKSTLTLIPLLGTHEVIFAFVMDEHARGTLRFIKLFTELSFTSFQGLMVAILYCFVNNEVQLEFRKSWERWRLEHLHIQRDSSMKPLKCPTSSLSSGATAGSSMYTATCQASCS
Description: (§1) Briefly, a 2 μM solution of peptide was prepared, and 4-fold serial dilutions were made. 150 nL of the above titration was then dispensed into an Optiplate384 using an Echo555. […] The HitHunter® cAMP Assay kit calibration curve was prepared following the manufacturer’s protocol (DiscoveRx-90-0075L). 30,000 cells/well were added to the peptides, spun briefly at 500 rpm for 15 s and incubated at RT in the dark for 1 hr. The assay was developed as per the manufacturer’s instructions. cAMP accumulation due to GLP1R agonism or GCGR agonism was measured using an EnVision platereader (PerkinElmer), and calibrated using the cAMP standard curve. Data were analyzed using Assay Data Analyzer (ADA).

[2] = target: T2, human glucagon receptor (GCGR) (Homo sapiens, UniProt P47871); test: cAMP assay on CHO-JumpIn cells stably transfected with human glucagon receptor (HitHunter cAMP); format: cell-based; conditions: Table 2; cAMP accumulation, CHO-JumpIn cells with human GCGR, buffer PBS, 0.1% BSA, 100 μM RO 20-1724, 20% serum; 1 hr at RT; value ± spread; read-out: EC50 GCGR;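 also: peptides tested as 4-fold serial dilutions starting from a 2 µM solution, cells exposed 1 hr at RT in darkness, cAMP quantified against a cAMP standard curve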
T2 construct: expressed in transfected cells; host or cells: CHO-JumpIn cells, stably transfected
T2 sequence (P47871 26-477): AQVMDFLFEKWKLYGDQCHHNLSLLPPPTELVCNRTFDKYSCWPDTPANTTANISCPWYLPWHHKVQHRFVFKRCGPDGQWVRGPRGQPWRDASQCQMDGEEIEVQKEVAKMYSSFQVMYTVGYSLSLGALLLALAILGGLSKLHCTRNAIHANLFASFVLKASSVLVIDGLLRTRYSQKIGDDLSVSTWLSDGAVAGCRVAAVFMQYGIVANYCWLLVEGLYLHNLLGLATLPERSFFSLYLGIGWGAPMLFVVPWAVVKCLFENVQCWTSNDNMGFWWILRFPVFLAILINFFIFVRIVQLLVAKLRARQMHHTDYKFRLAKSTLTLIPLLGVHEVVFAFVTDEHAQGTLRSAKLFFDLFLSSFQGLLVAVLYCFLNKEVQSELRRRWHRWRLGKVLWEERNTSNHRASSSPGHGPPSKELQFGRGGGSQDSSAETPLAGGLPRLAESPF
Description: as §1

| Structure (SMILES) | EC50 [1] [nM] | EC50 [2] [nM] |
| --- | --- | --- |
| CC(C)C[C@H](NC(=O)[C@H](Cc1ccc(O)cc1)NC(=O)[C@H](CCCCN)NC(=O)[C@H](CO)NC(=O)[C@H](Cc1ccc(O)cc1)NC(=O)[C@H](CC(=O)O)NC(=O)[C@H](CO)NC(=O)[C@@H](NC(=O)[C@H](Cc1ccccc1)NC(=O)[C@@H](NC(=O)CNC(=O)[C@H](CCC(N)=O)NC(=O)[C@H](CO)NC(=O)[C@@H](N)Cc1c[nH]cn1)[C@@H](C)O)[C@@H](C)O)C(=O)N[C@@H](CC(=O)O)C(=O)N[C@@H](Cc1c[nH]c2ccccc12)C(=O)N[C@@H](CCCNC(=N)N)C(=O)N[C@@H](CCCNC(=N)N)C(=O)N[C@@H](C)C(=O)N[C@@H](CCC(N)=O)C(=O)N[C@@H](CC(=O)O)C(=O)N[C@@H](Cc1ccccc1)C(=O)N[C@H](C(=O)N[C@@H](CCC(N)=O)C(=O)N[C@@H](Cc1c[nH]c2ccccc12)C(=O)N[C@@H](CC(C)C)C(=O)N[C@@H](CC(C)C)C(=O)N[C@@H](CC(N)=O)C(=O)N[C@H](C(N)=O)[C@@H](C)O)C(C)C [Peptide 6] | 0.063 ± 0.034 | 0.032 ± 0.013 |
| CC[C@H](C)[C@H](NC(=O)[C@H](CC(C)C)NC(=O)[C@H](Cc1c[nH]c2ccccc12)NC(=O)[C@H](CC(=O)O)NC(=O)[C@@H](NC(=O)[C@H](Cc1ccccc1)NC(=O)[C@H](CC(=O)O)NC(=O)[C@H](CCC(N)=O)NC(=O)[C@H](C)NC(=O)[C@H](CCCNC(=N)N)NC(=O)[C@H](CCCNC(=N)N)NC(=O)[C@H](CO)NC(=O)[C@H](CC(=O)O)NC(=O)[C@H](CC(C)C)NC(=O)[C@H](Cc1ccc(O)cc1)NC(=O)[C@H](CCCCN)NC(=O)[C@H](CO)NC(=O)[C@H](Cc1ccc(O)cc1)NC(=O)[C@H](CC(=O)O)NC(=O)[C@H](CO)NC(=O)[C@@H](NC(=O)[C@H](Cc1ccccc1)NC(=O)[C@@H](NC(=O)CNC(=O)[C@H](CCC(N)=O)NC(=O)[C@H](CO)NC(=O)[C@@H](N)Cc1c[nH]cn1)[C@@H](C)O)[C@@H](C)O)C(C)C)C(=O)N[C@@H](CC(N)=O)C(=O)N[C@@H](CO)C(N)=O [Peptide 28] | 0.007 ± 0.001 | 0.016 ± 0.001 |
| CSCC[C@H](NC(=O)[C@H](CC(C)C)NC(=O)[C@H](Cc1c[nH]c2ccccc12)NC(=O)[C@H](CCC(N)=O)NC(=O)[C@@H](NC(=O)[C@H](Cc1ccccc1)NC(=O)[C@H](CC(=O)O)NC(=O)[C@H](Cc1ccc(O)cc1)NC(=O)[C@H](C)NC(=O)[C@H](CCCNC(=N)N)NC(=O)[C@H](CC(C)C)NC(=O)[C@H](CCC(=O)O)NC(=O)[C@H](CC(=O)O)NC(=O)[C@H](CC(C)C)NC(=O)[C@H](Cc1ccc(O)cc1)NC(=O)[C@H](CCCCN)NC(=O)[C@H](CO)NC(=O)[C@H](Cc1ccc(O)cc1)NC(=O)[C@H](CC(=O)O)NC(=O)[C@H](CO)NC(=O)[C@@H](NC(=O)[C@H](Cc1ccccc1)NC(=O)[C@@H](NC(=O)CNC(=O)[C@H](CCC(N)=O)NC(=O)[C@H](CO)NC(=O)[C@@H](N)Cc1c[nH]cn1)[C@@H](C)O)[C@@H](C)O)C(C)C)C(=O)N[C@@H](CC(N)=O)C(=O)N[C@H](C(N)=O)[C@@H](C)O [Peptide 10] (H-HSQGTFTSDYSKYLDELRAYDFVQWLMNT-NH2) | 0.038 ± 0.009 | 0.057 ± 0.021 |
| CC[C@H](C)[C@H](NC(=O)CNC(=O)[C@H](CCC(N)=O)NC(=O)[C@H](CO)NC(=O)[C@@H](N)Cc1c[nH]cn1)C(=O)N[C@@H](Cc1ccccc1)C(=O)N[C@@H](Cc1ccccc1)C(=O)N[C@@H](CO)C(=O)N[C@@H](CC(=O)O)C(=O)N[C@@H](Cc1ccc(O)cc1)C(=O)N[C@@H](CO)C(=O)N[C@@H](CCCCN)C(=O)N[C@@H](Cc1ccc(O)cc1)C(=O)N[C@@H](CC(C)C)C(=O)N[C@@H](CC(=O)O)C(=O)N[C@@H](CO)C(=O)N[C@@H](CCCNC(=N)N)C(=O)N[C@@H](CCCNC(=N)N)C(=O)N[C@@H](C)C(=O)N[C@@H](CCC(N)=O)C(=O)N[C@@H](CC(=O)O)C(=O)N[C@@H](Cc1ccccc1)C(=O)N[C@H](C(=O)N[C@@H](CCC(N)=O)C(=O)N[C@@H](Cc1c[nH]c2ccccc12)C(=O)N[C@@H](CC(C)C)C(=O)N[C@@H](CCSC)C(=O)N[C@@H](CC(N)=O)C(=O)N[C@H](C(N)=O)[C@@H](C)O)C(C)C [Peptide 30] (H-HSQGIFFSDYSKYLDSRRAQDFVQWLMNT-NH2) | > 200 | 0.026 ± 0.004 |

Continued by falling EC50 [1], values first:

| EC50 [1] [nM] | EC50 [2] [nM] | Structure (SMILES) |
| --- | --- | --- |
| 16.7 ± 10.3 | 8.45 ± 2.67 | CSCC[C@H](NC(=O)[C@H](CC(C)C)NC(=O)[C@H](Cc1c[nH]c2ccccc12)NC(=O)[C@H](CCC(N)=O)NC(=O)[C@@H](NC(=O)[C@H](Cc1ccccc1)NC(=O)[C@H](CC(=O)O)NC(=O)[C@H](CCC(N)=O)NC(=O)[C@H](C)NC(=O)[C@H](CCCNC(=N)N)NC(=O)[C@H](CCCNC(=N)N)NC(=O)[C@H](CO)NC(=O)[C@H](CC(=O)O)NC(=O)[C@H](CC(C)C)NC(=O)[C@H](Cc1ccc(O)cc1)NC(=O)[C@H](CCCCN)NC(=O)[C@H](CO)NC(=O)[C@H](Cc1ccc(O)cc1)NC(=O)[C@H](CC(=O)O)NC(=O)[C@H](CO)NC(=O)[C@H](Cc1c[nH]c2ccccc12)NC(=O)[C@H](Cc1ccccc1)NC(=O)[C@H](CC(N)=O)NC(=O)CNC(=O)[C@@H](NC(=O)[C@H](CO)NC(=O)[C@@H](N)Cc1c[nH]cn1)C(C)C)C(C)C)C(=O)N[C@@H](CC(C)C)C(=O)N[C@H](C(N)=O)[C@@H](C)O [Peptide 1] (H-HSVGNFWSDYSKYLDSRRAQDFVQWLMLT-NH2) |
| 14.8 ± 11.4 | 4.18 ± 1.13 | CSCC[C@H](NC(=O)[C@H](CC(C)C)NC(=O)[C@H](Cc1c[nH]c2ccccc12)NC(=O)[C@H](CCC(N)=O)NC(=O)[C@@H](NC(=O)[C@H](Cc1ccccc1)NC(=O)[C@H](CC(=O)O)NC(=O)[C@H](CCC(N)=O)NC(=O)[C@H](C)NC(=O)[C@H](CCCNC(=N)N)NC(=O)[C@H](CCCNC(=N)N)NC(=O)[C@H](CO)NC(=O)[C@H](CC(=O)O)NC(=O)[C@H](CC(C)C)NC(=O)[C@H](Cc1ccc(O)cc1)NC(=O)[C@H](CCCCN)NC(=O)[C@H](CO)NC(=O)[C@H](Cc1ccc(O)cc1)NC(=O)[C@H](CC(=O)O)NC(=O)[C@H](CO)NC(=O)[C@@H](NC(=O)[C@H](Cc1ccccc1)NC(=O)[C@@H](NC(=O)[C@H](Cc1ccccc1)NC(=O)[C@H](CCC(N)=O)NC(=O)CNC(=O)[C@H](CC(C)C)NC(=O)[C@H](C)NC(=O)[C@@H](N)CCCCN)[C@@H](C)O)[C@@H](C)O)C(C)C)C(=O)N[C@@H](CC(N)=O)C(=O)N[C@H](C(N)=O)[C@@H](C)O [Peptide 21] (H-KALGQFTFTSDYSKYLDSRRAQDFVQWLMNT-NH2) |
| 0.133 ± 0.032 | 0.025 ± 0.001 | CSCC[C@H](NC(=O)[C@H](CC(C)C)NC(=O)[C@H](CO)NC(=O)[C@H](CC(=O)O)NC(=O)[C@H](CC(C)C)NC(=O)[C@H](Cc1ccc(O)cc1)NC(=O)[C@H](CCCCN)NC(=O)[C@H](CO)NC(=O)[C@H](Cc1ccc(O)cc1)NC(=O)[C@H](CC(=O)O)NC(=O)[C@H](CO)NC(=O)[C@@H](NC(=O)[C@H](Cc1ccccc1)NC(=O)[C@@H](NC(=O)CNC(=O)[C@H](CCC(N)=O)NC(=O)[C@H](CO)NC(=O)[C@@H](N)Cc1c[nH]cn1)[C@@H](C)O)[C@@H](C)O)C(=O)N[C@@H](C)C(=O)N[C@@H](CCC(N)=O)C(=O)N[C@@H](CC(=O)O)C(=O)N[C@@H](Cc1ccccc1)C(=O)N[C@H](C(=O)N[C@@H](CCC(N)=O)C(=O)N[C@@H](Cc1c[nH]c2ccccc12)C(=O)N[C@@H](CC(C)C)C(=O)N[C@@H](CCSC)C(=O)N[C@@H](CO)C(=O)N[C@H](C(N)=O)[C@@H](C)O)C(C)C [Peptide 5] (H-HSQGTFTSDYSKYLDSLMAQDFVQWLMST-NH2) |
| 0.039 ± 0.008 | 0.078 ± 0.05 | CC[C@H](C)[C@H](NC(=O)[C@H](CC(C)C)NC(=O)[C@H](Cc1c[nH]c2ccccc12)NC(=O)[C@H](CCC(N)=O)NC(=O)[C@@H](NC(=O)[C@H](Cc1ccccc1)NC(=O)[C@H](CC(=O)O)NC(=O)[C@H](CCC(N)=O)NC(=O)[C@H](C)NC(=O)[C@H](CCCNC(=N)N)NC(=O)[C@H](CCCNC(=N)N)NC(=O)[C@H](CO)NC(=O)[C@H](CC(=O)O)NC(=O)[C@H](CC(C)C)NC(=O)[C@H](Cc1ccc(O)cc1)NC(=O)[C@H](CCCCN)NC(=O)[C@H](CO)NC(=O)[C@H](Cc1ccc(O)cc1)NC(=O)[C@H](CC(=O)O)NC(=O)[C@H](CO)NC(=O)[C@@H](NC(=O)[C@H](Cc1ccccc1)NC(=O)[C@@H](NC(=O)CNC(=O)[C@H](CCC(N)=O)NC(=O)[C@H](CO)NC(=O)[C@@H](N)Cc1c[nH]cn1)[C@@H](C)O)[C@@H](C)O)C(C)C)C(=O)N[C@@H](CC(N)=O)C(=O)N[C@@H](Cc1ccc(O)cc1)C(N)=O [Peptide 13] |
| 0.022 ± 0.001 | 0.014 ± 0.001 | CSCC[C@H](NC(=O)[C@H](CC(=O)O)NC(=O)[C@H](CC(C)C)NC(=O)[C@H](Cc1ccc(O)cc1)NC(=O)[C@H](CCCCN)NC(=O)[C@H](CO)NC(=O)[C@H](Cc1ccc(O)cc1)NC(=O)[C@H](CC(=O)O)NC(=O)[C@H](CO)NC(=O)[C@@H](NC(=O)[C@H](Cc1ccccc1)NC(=O)[C@@H](NC(=O)CNC(=O)[C@H](CCC(N)=O)NC(=O)[C@H](CO)NC(=O)[C@@H](N)Cc1c[nH]cn1)[C@@H](C)O)[C@@H](C)O)C(=O)N[C@@H](CCC(N)=O)C(=O)N[C@@H](CCCNC(=N)N)C(=O)N[C@@H](C)C(=O)N[C@@H](Cc1c[nH]cn1)C(=O)N[C@@H](CC(=O)O)C(=O)N[C@@H](Cc1ccccc1)C(=O)N[C@H](C(=O)N[C@@H](CCC(N)=O)C(=O)N[C@@H](Cc1c[nH]c2ccccc12)C(=O)N[C@@H](CC(C)C)C(=O)N[C@@H](CCSC)C(=O)N[C@@H](CC(N)=O)C(=O)N[C@H](C(N)=O)[C@@H](C)O)C(C)C [Peptide 32] |
